The values below come from patent publication US11649238B2, “Substituted pyrazolo[1,5-a]pyrimidines as PI4K inhibitors” (GLAXOSMITHKLINE INTELLECTUAL PROPERTY DEVELOPMENT LIMITED, priority 2018, dated 2023).

The conditions of data set [1]: intranasal administration, cited from earlier work; for accumulation of compound in lung tissue: rat model.
The target of data set [2] is T1, human PI4KIII-beta 13-828 (D316-330) (Homo sapiens, UniProt Q9UBF8).
T1 construct: human PI4KIII-beta 13-828 (D316-330)
T1 sequence (Q9UBF8 1-801 isoform Q9UBF8-2): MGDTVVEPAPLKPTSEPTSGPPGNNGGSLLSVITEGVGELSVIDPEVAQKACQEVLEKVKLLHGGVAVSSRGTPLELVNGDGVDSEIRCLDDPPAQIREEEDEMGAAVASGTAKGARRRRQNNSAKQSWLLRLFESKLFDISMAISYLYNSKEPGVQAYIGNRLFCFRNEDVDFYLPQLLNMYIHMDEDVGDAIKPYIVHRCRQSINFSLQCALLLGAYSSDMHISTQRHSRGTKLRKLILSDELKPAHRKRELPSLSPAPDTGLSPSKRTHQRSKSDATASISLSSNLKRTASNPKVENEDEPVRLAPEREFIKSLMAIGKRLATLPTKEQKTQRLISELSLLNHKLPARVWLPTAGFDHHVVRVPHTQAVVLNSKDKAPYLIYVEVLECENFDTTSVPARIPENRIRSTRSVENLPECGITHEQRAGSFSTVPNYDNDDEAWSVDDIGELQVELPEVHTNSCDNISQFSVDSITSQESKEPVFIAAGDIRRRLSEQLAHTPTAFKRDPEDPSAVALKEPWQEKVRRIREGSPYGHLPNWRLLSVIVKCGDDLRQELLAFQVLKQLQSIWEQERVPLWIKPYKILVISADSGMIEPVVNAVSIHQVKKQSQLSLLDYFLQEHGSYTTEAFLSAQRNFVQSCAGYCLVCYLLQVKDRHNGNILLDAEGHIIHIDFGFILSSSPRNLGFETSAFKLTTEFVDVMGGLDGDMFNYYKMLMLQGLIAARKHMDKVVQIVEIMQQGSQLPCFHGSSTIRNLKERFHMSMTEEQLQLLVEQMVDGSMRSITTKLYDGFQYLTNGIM
The experiment in a line: PI4 KB Activity Assay (ADP-GLO Kinase assay). The format is biochemical. As to conditions: 1 mM ATP, 60 μM phosphatidylinositol, 3 hours at room temperature; read-out: mean pIC50 (converted). The procedure, abridged: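 Human PI4KIII-beta 13-828 (Δ316-330), 1.5 nM, with 1 mM ATP and 60 μM phosphatidylinositol in Hepes pH 7.5/MgCl2 buffer, 11-point titration (top 10 μM, 1% DMSO), 3 h at room temperature. ADP measured by ADP-Glo luminescence; IC50 by four-parameter fit against no-compound and no-enzyme controls.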
(In general: In ADP-Glo the light output rises with the ADP produced.)

Data set [3] is described as follows: Spleen Concentration Assay. The data set is classed as in vivo. The conditions noted are these: male, Wistar Han, rat, intravenous, 1 mg/kg, intravenous infusion 1 mg/kg over 1 h, single male Wistar Han rat, 12 hours after the start of dosing. The protocol: e) Spleen Concentration Assay Compounds 17, 18, 19, 22 and 23 were tested in this spleen accumulation assay. Compounds were administered intravenously to rats to determine what the level of the compound in the spleen would be if all of the inhaled dose was absorbed (either orally or through the lungs) and systemic circulation was exposed to the full dose. Compounds 17, 19, 22 and 23 were formulated in 2% DMSO in Kleptose (aq, 10% w/v). Compound 18 was formulated in a 5:45:50 ratio of DMSO:PEG200:water. Formulations were administered as intravenous infusions (1 mg/kg over 1 h) to a single male, Wistar Han rat. 12 hours after the start of dosing, rats were euthanised and spleens were collected. Approximately 0.5 g samples of spleen were taken and homogenised in 4 mL water. 100 μL of the resulting homogenates were prepared by protein precipitation with 300 μL of acetonitrile containing an internal standard and assayed (along with calibration standards prepared in the same manner) by reversed-phase liquid chromatography-mass spectrometry, using a heated electrospray source and operated in the positive ion multiple reaction monitoring mode. The liquid chromatography column used was a Waters Cortecs C18 2.7 μm particle size, 50×2.1 mm column at 60° C., and the mobile phase, operated as a gradient, utilised (A) 0.1% formic acid (aq) and (B) 0.1% formic acid in acetonitrile, operated at a flow rate of 1 mL/min.

SMILES strings stand for the structures.

In the case of `Cc1cc(NCc2cccc(-n3cccc3)c2)n2nc(C)c(-c3ccc(Cl)c(C(=O)N(C)CCN(C)C)c3)c2n1` [GSK3159043A], the “accumulation of compound in lung tissue” value in data set [1] was “substantial accumulation of compound in lung tissue”. Besides, the “histological findings following IN dose” value in data set [1] (rat nasal cavity and lung) was “ulceration in the rat nasal cavity and bronchial epithelial hyperplasia in the rat lung”. For the molecule `COc1ccc(-c2c(C)nn3c(NCc4cccc(-c5nccn5C)c4)cc(C(C)(C)O)nc23)cc1C(=O)N(C)C` [Compound 23], the IC50 in data set [2] was no more than 3.98 nM. In data set [3], this molecule had a concentration at 12 h of less than 7 ng/g. With `COc1ccc(-c2c(C)nn3c(NCc4cccc(-n5cccc5)c4)cc(OCCCN(C)C)nc23)cc1S(C)(=O)=O` [GSK3180404A], the “accumulation of compound in lung tissue” value in data set [1] was “substantial accumulation of compound in lung tissue”.
